Test results: US20240418701A1, “SINGLE MOLECULE IDEN[…] A REACTIVE HETERO-NANOPORE” (priority 2021, published 2024)
Like-named read-outs stand apart in the source and are kept apart here.

Experiments:
[1] = target: M2 MspA (Mycolicibacterium smegmatis, UniProt A0QR29, D117N/D118N/D120N/D145R/D161R/E166K); test: NMP sensing performed with M2 MspA (control without PBA); assay type: binding, Mycobacterium smegmatis; details: NMP 1 mM in cis, +200 mV
Description: FIG. 44: NMP sensing performed with M2 MspA. (a-d) Representative traces of (a) CMP, (b) UMP, (c) AMP, (d) GMP sensing performed with M2 MspA. All measurements were carried out as described in Methods in Example 2 in a 1.5 M KCl buffer (1.5 M KCl, 10 mM MOPS, pH 7.0). A +200 mV bias was continually applied. NMPs were added to cis with a final concentration of 1 mM for each analyte.
(§1) NMPs consist of a ribose, a phosphate group and a nucleobase, serving as monomeric units of RNA. […] Experimentally, single channel recording was performed using MspA-PBA in a 1.5 M KCl buffer (1.5 M KCl, 10 mM MOPS, pH 7.0) (Methods in Example 2). A transmembrane potential of +200 mV was continually applied. Four canonical NMPs, adenine mononucleotide (AMP), guanine mononucleotide (GMP), cytosine mononucleotide (CMP) and uracil mononucleotide (UMP) were tested as analytes (FIG. 33d). Either type of NMP was added to cis at a final concentration of 300 μM. Subsequently, successive resistive pulses caused by either type of NMP were immediately observed (FIG. 33d). However, no events were observed when M2 MspA was tested, confirming that the PBA located at the pore constriction is critical in the generation of NMP sensing events (FIG. 44). At this condition, ˜1800 events/h were obtained from each pore. The pore could normally withstand a few hours of continuous measurement. Deoxyribonucleoside monophosphate (dNMP) fails to report any event when sensed by MspA-PBA (FIG. 45). This is expected because dNMPs have no cis-diol structure and can't form the boronate ester which is necessary for sensing. The molecular mechanism of sensing which results from reversible covalent bond formation between an NMP and the PBA at the pore constriction is thus confirmed.

[2] = target: T1, MspA-PBA (phenylboronic acid modified hetero-octameric (N90C)1(M2)7 MspA) (Mycolicibacterium smegmatis, UniProt A0QR29, D117C/D118N/D120N/D145R/D161R/E166K); assay type: binding, Mycobacterium smegmatis; details: +200 mV
T1 construct: H6 (hexa-histidine) (C); 3-(maleimide) phenylboronic acid (MPBA) adduct on the thiol of Cys90; made in house; host or cells: E. coli BL21 (DE3) pLysS, co-expression from pETDuet-1
Description: FIG. 46: Definition of event parameters. […] The measurement was carried out as described in Methods in Example 2. The chambers were filled with a 1.5 M KCl buffer (1.5 M KCl, 10 mM MOPS, pH 7.0). A transmembrane potential of +200 mV was continually applied. AMP was added to cis with a final concentration of 300 μM. The open pore current (Ip), the residual current (Ib), the dwell time (τoff) and the inter-event duration (τon) are defined as marked on the trace. The percentage blockage (% Ib) is defined as (Ip−Ib)/Ip. The noise amplitude (S.D.) is defined as the standard deviation of the blockage level.
as §1
To describe NMP sensing events quantitatively, the event dwell time (τoff), the inter-event interval (τon), the percentage blockage (% Ib=(Ip−Ib)/Ip) and the noise amplitude (S.D.) were derived as described in FIG. 46. Generally, the histograms of τoff and τon show an exponential distribution, and could be fitted to derive the mean time constants τoff or τon, respectively. The histograms of % Ib and S.D. show a Gaussian distribution, which could be fitted to derive the mean percentage blockage % Ib and S.D., respectively. During NMP sensing, by varying the NMP concentrations in cis, the reciprocal of dwell time (1/τoff) remains constant, consistent with a unimolecular dissociation mechanism. Whereas the reciprocal of the inter-event interval (1/τon) linearly correlates with the NMP concentration in cis (Tables 8-11, FIG. 47-50), consistent with a bimolecular model. The dependence of the applied voltage during NMP sensing was investigated using AMP as a representative analyte. […] This is expected because in a pH 7.0 buffer, the phosphate group of NMP is negatively charged and the electrophoretic force applied on the NMP analyte can strongly regulate the rate of event appearance and the event dwell time.

[3] = target: T2, Octameric M2 MspA (Mycolicibacterium smegmatis, UniProt A0QR29, D117N/D118N/D120N/D145R/D161R/E166K); test: Alditol sensing using M2 MspA nanopore (control without PBA); assay type: binding, Mycobacterium smegmatis; details: alditol 4 mM in cis, +100 mV
T2 construct: made in house; host or cells: E. coli BL21 (DE3)
Description: FIG. 87: Alditol sensing using M2 MspA nanopore. Glycerol, erythritol, xylitol and sorbitol were used as the representative alditols with different number of hydroxyl groups. All measurements were carried out as described in Methods 1 in Example 3. Octameric M2 MspA was applied as the nanopore sensor. A transmembrane potential of +100 m V was continually applied. Each alditol was added to cis with a final concentration of 4 mM.
The octameric M2 MspA was used as a control in FIG. 87. It was expressed with E. coli BL21 (DE3) and purified by nickel affinity chromatography as reported previously.^1

[4] = target: T3, MspA-PBA (boronic acid appended hetero-octameric MspA) (Mycolicibacterium smegmatis, UniProt A0QR29, D117C/D118N/D120N/D145R/D161R/E166K); test: Single channel recording of alditol binding to MspA-PBA nanopore (standards and zero-sugar drinks); set-up: species or system Mycobacterium smegmatis; details: N=3; for ratio (mean current percentage blockage) / std (standard deviation of the blocking level): alditol 4 mM (glycerol 8 mM) in cis
T3 construct: H6 (hexa-histidine) (C); 3-(maleimide) phenylboronic acid (MPBA) adduct on the thiol of Cys90; made in house; host or cells: E. coli BL21 (DE3) pLysS, co-expression from pETDuet-1
Description: FIG. 88: Definition of event parameters. (a) A representative electrophysiology trace containing nanopore events. Xylitol was treated as the model analyte. I0 is the open pore current and Ib is the residual current caused by alditol blockade. ratio is derived from (I0−Ib)/I0, which is defined as the percentage blockage. τoff represents the dwell time of an event. τon represents the inter-event interval. std is the standard deviation value of the blockage level. (b-c) The histogram plot of ratio (b) and std (c) acquired from a continually recorded trace. The histograms were Gaussian fitted and the peaks of the fitting results respectively represent the mean value of ratio and the mean std. (d-e) The histogram plots of τoff (d) and τon (e) acquired from a continually recorded trace. The histogram plots were respectively fit to a single exponential curve, according to the equation y=a*exp (−x/τ), from which the mean event dwell time (τoff) (d) and the mean inter-event interval (τon) (e) were respectively derived. If not otherwise stated, all results in this manuscript were described by event parameters defined above.
All subsequent nanopore measurements were carried out with a 1.5 M KCl buffer (1.5 M KCl, 10 mM 3-(N-Morpholino) propanesulfonic acid (MOPS), pH 7.0) and a +100 m V continually applied potential (Method 1 in Example 3). 13 types of alditols, which were derived from the reduction of the carbonyl group of C3-C6 monoaldoses were treated as model polyols (FIGS. 77b and 83). The PBA of MspA-PBA can complex with a polyol, forming a cyclic ester at the pore constriction and resulting in the corresponding nanopore event being reported. All alditols were added to the cis side of the pore and the final concentration of alditols was set at 4 mM with the exception of glycerol, which was set at 8 mM instead. […] In addition, single molecule sensing of glycerol and D-Sorbitol by MspA-PBA are as shown in FIGS. 104 and 105, respectively.
To describe the sensing events quantitatively, event parameters such as the open-pore current (I0), the current blockade (Ib), the percentage blockage (ratio), the event dwell time (τoff), the inter-event intervals (τon) and the standard deviation value of the blockage level (std) were defined as described in FIG. 88. The percentage blockage, also referred to for simplicity as ratio, is defined as (I0−Ib)/I0.
Quantitatively, the reciprocal of the mean inter-event interval (1/τon, N=3) is linearly correlated with the alditol concentration, consistent with a bimolecular model. The mean event dwell time τoff (N=3) however is independent of the alditol concentration, and this is consistent with a unimolecular dissociation mechanism (FIGS. 89e-92e, Table 18). […] The binding constant for borate cyclic ester formation for alditols increases as the number of hydroxyl groups in the alditol increases (FIG. 77c and Table 18), consistent with conclusions drawn previously from the corresponding NMR measurements.^52 Nanopore measurements were also performed with different applied voltages. […] This is expected because all alditols tested in this paper are electrically neutral and the formation of a borate ester is independent of the local electric field.
All nanopore measurements were performed as described previously.^1,2 Briefly, the measurement device has two custom chambers separated by a thick Teflon film containing a drilled (˜100 μm) aperture. Before the measurement, the aperture was first treated with 0.5% (v/v) hexadecane in pentane and set for pentane evaporation. Electrolyte buffer (500 μL) was added to the electrically grounded chamber (cis chamber) and the opposing chamber (trans chamber). All nanopore measurements in this paper were performed with a 1.5 M KCl buffer (1.5 M KCl, 10 mM MOPS, pH 7.0). Two custom-made Ag/AgCl electrodes were placed in both chambers in contact with the buffers and the patch-clamp amplifier to form a closed circuit. […]

[5] = NMP 100 μM in cis, three independent measurements
[6] = NMP 200 μM in cis, three independent measurements
[7] = NMP 300 μM in cis, three independent measurements
[8] = NMP 400 μM in cis, three independent measurements
[9] = NMP 500 μM in cis, three independent measurements
[10] = voltage series: +60 mV, glycerol 12 mM, other alditols 8 mM
[11] = voltage series: +80 mV, glycerol 12 mM, other alditols 8 mM
[12] = voltage series: +100 mV, glycerol 12 mM, other alditols 8 mM
[13] = voltage series: +120 mV, glycerol 12 mM, other alditols 8 mM

T3 sequence (A0QR29 other isoform, or with tags, fused parts or gaps D117N/D118N/D120N/D145R/D161R/E166K): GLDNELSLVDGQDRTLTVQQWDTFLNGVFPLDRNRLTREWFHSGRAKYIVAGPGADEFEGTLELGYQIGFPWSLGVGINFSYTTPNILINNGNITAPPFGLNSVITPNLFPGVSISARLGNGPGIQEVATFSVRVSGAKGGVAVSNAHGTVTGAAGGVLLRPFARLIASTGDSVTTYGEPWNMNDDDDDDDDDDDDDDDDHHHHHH
T3 sequence (A0QR29 other isoform, or with tags, fused parts or gaps D117C/D118N/D120N/D145R/D161R/E166K): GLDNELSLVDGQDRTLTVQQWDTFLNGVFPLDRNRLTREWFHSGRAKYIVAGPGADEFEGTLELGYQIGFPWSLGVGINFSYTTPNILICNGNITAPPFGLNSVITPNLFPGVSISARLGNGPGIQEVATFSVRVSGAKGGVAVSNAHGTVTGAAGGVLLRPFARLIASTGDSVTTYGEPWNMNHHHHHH
T2 sequence (A0QR29 28-211 D117N/D118N/D120N/D145R/D161R/E166K): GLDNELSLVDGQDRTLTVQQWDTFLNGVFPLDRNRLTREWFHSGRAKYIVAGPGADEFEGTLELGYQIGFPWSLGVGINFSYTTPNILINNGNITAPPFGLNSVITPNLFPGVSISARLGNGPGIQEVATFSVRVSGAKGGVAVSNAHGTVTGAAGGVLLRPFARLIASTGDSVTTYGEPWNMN
M2 MspA, sequence (A0QR29 28-211 D117N/D118N/D120N/D145R/D161R/E166K): as above

Structure (SMILES): O=c1ccn([C@@H]2O[C@H](COP(=O)(O)O)[C@@H](O)[C@H]2O)c(=O)[nH]1 [UMP, uridine-5′-monophosphate]
- binding events with M2 MspA [1]: No binding events were observed
- 1/τoff [2, 5]: 7.8 ± 0.9 s⁻¹
- 1/τon [2, 5]: 0.28 ± 0.08 s⁻¹
- 1/τoff [2, 6]: 7.4 ± 1.4 s⁻¹
- 1/τon [2, 6]: 0.36 ± 0.02 s⁻¹
- % Ib (percentage blockage) ([2]; NMP 300 μM in cis, N=3): 8.64±0.09%
- S.D. (noise amplitude of blockage level) ([2]; NMP 300 μM in cis, N=3): 2.14 ± 0.06 pA
- τoff (mean dwell time) ([2]; NMP 300 μM in cis, N=3): 130.3 ± 14.8 ms
- τon (mean inter-event interval) ([2]; NMP 300 μM in cis, N=3): 2097.9 ± 474.7 ms
- % Ib (percentage blockage) ([2]; NMP 300 μM in cis, N=3, listed as U): 8.64 ± 0.09%
- 1/τoff [2, 7]: 7.7 ± 0.9 s⁻¹
- 1/τon [2, 7]: 0.49 ± 0.08 s⁻¹
- 1/τoff [2, 8]: 8.2 ± 0.4 s⁻¹
- 1/τon [2, 8]: 0.56 ± 0.11 s⁻¹
- 1/τoff [2, 9]: 8.7 ± 0.4 s⁻¹
- 1/τon [2, 9]: 0.68 ± 0.09 s⁻¹
- Calibration coefficient δ (NMP binding events per unit concentration per min) ([2]; sole NMP 300 μM in cis, three independent measurements): 0.097 ± 0.014 µM⁻¹ min⁻¹

Structure (SMILES): OC[C@@H](O)[C@H](O)[C@@H](O)CO [xylitol]
- binding events with M2 MspA [3]: No binding events were observed
- ratio (mean current percentage blockage) ([4]; +100 mV): 25.70±0.10%
- std (standard deviation of the blocking level) ([4]; +100 mV): 6.28±0.07 pA
- 1/τon ([4]; alditol 2 mM in cis, +100 mV): 0.42 ± 0.02 s⁻¹
- τoff ([4]; alditol 2 mM in cis, +100 mV): 515.3 ± 43.5 ms
- 1/τon ([4]; alditol 4 mM in cis, +100 mV): 0.84 ± 0.04 s⁻¹
- τoff ([4]; alditol 4 mM in cis, +100 mV): 496.3 ± 18.6 ms
- 1/τon ([4]; alditol 6 mM in cis, +100 mV): 1.3 ± 0.1 s⁻¹
- τoff ([4]; alditol 6 mM in cis, +100 mV): 461.1 ± 13.4 ms
- 1/τon ([4]; alditol 8 mM in cis, +100 mV): 1.71 ± 0.03 s⁻¹
- τoff ([4]; alditol 8 mM in cis, +100 mV): 474.6 ± 21.2 ms
- 1/τon [4, 10]: 1.66 ± 0.02 s⁻¹
- 1/τon [4, 11]: 1.69 ± 0.02 s⁻¹
- 1/τon [4, 12]: 1.70 ± 0.03 s⁻¹
- 1/τon [4, 13]: 1.68 ± 0.04 s⁻¹

Structure (SMILES): OC[C@@H](O)[C@@H](O)[C@H](O)[C@@H](O)CO [D-sorbitol]
- binding events with M2 MspA [3]: No binding events were observed
- ratio (mean current percentage blockage) ([4]; +100 mV): 30.43 ± 0.06%
- std (standard deviation of the blocking level) ([4]; +100 mV): 5.30 ± 0.17 pA
- 1/τon ([4]; alditol 2 mM in cis, +100 mV): 0.40 ± 0.04 s⁻¹
- τoff ([4]; alditol 2 mM in cis, +100 mV): 2100 ± 300 ms
- 1/τon ([4]; alditol 4 mM in cis, +100 mV): 0.81 ± 0.09 s⁻¹
- τoff ([4]; alditol 4 mM in cis, +100 mV): 2110 ± 120 ms
- 1/τon ([4]; alditol 6 mM in cis, +100 mV): 1.2 ± 0.2 s⁻¹
- τoff ([4]; alditol 6 mM in cis, +100 mV): 2200 ± 200 ms
- 1/τon ([4]; alditol 8 mM in cis, +100 mV): 1.7 ± 0.1 s⁻¹
- τoff ([4]; alditol 8 mM in cis, +100 mV): 2200 ± 300 ms
- 1/τon [4, 10]: 1.67 ± 0.03 s⁻¹
- 1/τon [4, 11]: 1.60 ± 0.06 s⁻¹
- 1/τon [4, 12]: 1.70 ± 0.06 s⁻¹
- 1/τon [4, 13]: 1.70 ± 0.05 s⁻¹
